Calls of active or inactive are those of the source. No cut-off for these calls is given here.
Experiments:
[1] = test system: PBMC; assay: Anti-inflammatory activity in human PBMC assessed as inhibition of LPS-induced TNFalpha production at 10 uM after 24 hrs by ELISA relative to control; type: functional
[2] = Cytotoxicity against human PBMC assessed as cell viability at 10 um after 24 hrs by WST-1 assay relative to control; type: cell-based; conditions: PBMC (peripheral blood mononuclear cells), read-out: Activity
[3] = test system: PBMC; assay: Anti-inflammatory activity in human PBMC assessed as inhibition of LPS-induced IL-1beta production at 10 uM after 24 hrs by ELISA relative to control; type: functional
[4] = test system: Mus musculus; assay: Antiallodynic activity in C57BL/6J mouse model of sciatic nerve ligation-induced neuropathic pain assessed as increase in paw withdrawal latency time at 1 mg/kg, ip bid for 17 consecutive days starting from 2 to 3 weeks post surgery by Von Frey test; type: functional, organism-based
[5] = test system: Mus musculus; assay: Antiallodynic activity in C57BL/6J mouse model of sciatic nerve ligation-induced neuropathic pain assessed as increase in paw withdrawal latency time at 5 mg/kg, ip bid for 17 consecutive days starting from 2 to 3 weeks post surgery measured on day 11 during compound dosing by Von Frey test; type: functional, organism-based
[6] = test system: PBMC; assay: Anti-inflammatory activity in human PBMC assessed as inhibition of LPS-induced TNFalpha production after 24 hrs by ELISA; type: functional, cell-based
[7] = test system: PBMC; assay: Anti-inflammatory activity in human PBMC assessed as inhibition of LPS-induced IL-1beta production after 24 hrs by ELISA; type: functional, cell-based
[8] = test system: Mus musculus; assay: Anti-inflammatory activity in LPS-induced acute lung inflammation C57BL/6 mouse model assessed as inhibition of neutrophils recruitment in BALF at 5 mg/kg, ip bid administered 1 hr before and 10 hrs after LPS treatment measured 24 hrs post LPS treatment by flow cytometry relative to control; type: functional; conditions: C57BL/6, ip
[9] = test system: Mus musculus; assay: Anti-inflammatory activity in LPS-induced acute lung inflammation C57BL/6 mouse model assessed as inhibition of lymphocytes recruitment in BALF at 5 mg/kg, ip bid administered 1 hr before and 10 hrs after LPS treatment measured 24 hrs post LPS treatment by flow cytometry relative to control; type: functional; conditions: C57BL/6, ip
[10] = test system: Mus musculus; assay: Antiallodynic activity in C57BL/6J mouse model of sciatic nerve ligation-induced neuropathic pain assessed as increase in paw withdrawal latency time at 1 mg/kg, ip bid for 17 consecutive days starting from 2 to 3 weeks post surgery measured on day 16 during compound dosing by Von Frey test; type: functional, organism-based
[11] = test system: Mus musculus; assay: Toxicity in C57BL/6 mouse assessed as effect on number of inflammatory cells recovered in BALF at 5 mg/kg, ip bid administered 1 hr before and 10 hrs after LPS treatment measured 24 hrs post LPS treatment by flow cytometry; type: organism-based; conditions: in vivo
[12] = test system: Mus musculus; assay: Toxicity in C57BL/6J mouse model of sciatic nerve ligation-induced neuropathic pain assessed as behavioral changes at 1 to 5 mg/kg, ip bid for 17 consecutive days starting from 2 to 3 weeks post surgery; type: organism-based; conditions: in vivo
[13] = test system: Mus musculus; assay: Anti-inflammatory activity in LPS-induced acute lung inflammation C57BL/6 mouse model assessed as inhibition of TNFalpha level in BALF at 5 mg/kg, ip bid administered 1 hr before and 10 hrs after LPS treatment measured 24 hrs post LPS treatment by ELISA relative to control; type: functional; conditions: C57BL/6, ip
[14] = test system: Mus musculus; assay: Toxicity in C57BL/6J mouse model of sciatic nerve ligation-induced neuropathic pain assessed as body weight loss at 5 mg/kg, ip bid for 17 consecutive days starting from 2 to 3 weeks post surgery relative to control; type: organism-based; conditions: in vivo
[15] = test system: Mus musculus; assay: Toxicity in C57BL/6J mouse model of sciatic nerve ligation-induced neuropathic pain assessed as body weight loss at 1 mg/kg, ip bid for 17 consecutive days starting from 2 to 3 weeks post surgery; type: organism-based; conditions: in vivo

Compound	inhibition at 10 µM [1]	viability at 24 h, 10 µM [2]	inhibition at 10 µM [3]	further results
COc1cccc(-c2ccnc(NC(=N)N)c2)c1	56%	66%	29%	–
CNCCC=C1c2ccccc2CCc2ccccc21	–	–	–	Activity [4]: inactive; Activity [5]: Active
COc1ccccc1-c1ccc2c(c1)CNC(N)=N2	13%	126%	1%	–
COc1ccccc1-c1ccnc(NC(=N)N)c1	10%	99%	-1%	–
N=C(N)Nc1cccc(-c2ccc(Cl)cc2)n1	72%	35%	77%	–
N=C(N)Nc1cc(-c2ccccc2Cl)ccn1	65%	42%	23%	–
N=C(N)Nc1ccc(-c2ccccc2)cn1	-9%	97%	-1%	–
N=C(N)Nc1ncccc1-c1ccccc1	11%	108%	1%	–
COc1ccc(C2CNC(=O)C2)cc1OC1CCCC1 (centres undefined) [ROLIPRAM]	79%	104%	–	IC50 [6]: 0.13 µM
Nc1nc2ccc(-c3ccccc3)cc2[nH]1	15%	114%	3%	–
NC(=S)Nc1cc(-c2ccccc2)ccn1	4%	86%	1%	–
COc1ccc(-c2ccc(NC(=N)N)nc2)cc1	58%	34%	48%	–
N=C(N)Nc1cc(-c2ccc(Cl)cc2)ccn1	69%	24%	97%	–
N=C(N)Nc1ccc(-c2cccc(Cl)c2)cn1	52%	94%	8%	IC50 [7]: 17.5 µM; IC50 [6]: 5.5 µM
N=C(N)Nc1cccc(-c2ccccc2)n1	18%	100%	3%	IC50 [7]: > 30 µM; IC50 [6]: 18.6 µM
COc1ccccc1-c1cccc(NC(=N)N)n1	7%	106%	1%	–
N=C(N)Nc1ccc(-c2ccccc2Cl)cn1	82%	55%	96%	–

Compound	inhibition at 10 µM [1]	viability at 24 h, 10 µM [2]	inhibition at 10 µM [3]	further results
NC1=Nc2ccc(-c3ccccc3)cc2CN1	22%	90%	–	–
N=C(N)Nc1cc(-c2ccc(C(F)(F)F)cc2)ccn1	71%	24%	98%	–
COc1cccc(-c2ccc(NC(=N)N)nc2)c1	25%	116%	4%	–
NC1=Nc2cc(-c3ccccc3)ccc2CCN1	-7%	100%	-4%	–
NC1=Nc2cc(-c3ccccc3)ccc2CN1	76%	81%	93%	inhibition in vivo at 5 mg/kg [8]: 62%; inhibition in vivo at 5 mg/kg [9]: 63%; Activity [5]: Active; IC50 [7]: 3.7 µM; Activity [10]: Active; Activity [11]: Non-Toxic; Activity [12]: Non-Toxic; IC50 [6]: 1 µM; inhibition in vivo at 5 mg/kg [13]: 49%
NC(N)=Nc1cc(-c2ccccc2)ccn1	–	72%	–	Activity [14]: 5%; Activity [15]: Non-Toxic; Activity [11]: Non-Toxic
COc1ccc(-c2ccnc(NC(=N)N)c2)cc1	69%	34%	86%	–
N=C(N)Nc1cccc(-c2ccccc2Cl)n1	47%	74%	9%	IC50 [7]: > 30 µM; IC50 [6]: 19.2 µM
N=C(N)Nc1ccc(-c2ccc(Cl)cc2)cn1	72%	23%	97%	–
NC1=Nc2cccc(-c3ccccc3)c2CN1	7%	111%	0%	–
N=C(N)Nc1cccc(-c2cccc(Cl)c2)n1	74%	40%	80%	–
COc1cccc(-c2cccc(NC(=N)N)n2)c1	7%	104%	2%	–
COc1ccc(-c2cccc(NC(=N)N)n2)cc1	27%	94%	-6%	–
N=C(N)Nc1cc(-c2cccc(Cl)c2)ccn1	64%	38%	53%	–
N=C(N)Nc1cc(-c2ccccc2)ccn1	67%	–	91%	Activity [4]: Active; inhibition in vivo at 5 mg/kg [8]: 39%; inhibition in vivo at 5 mg/kg [9]: 52%; IC50 [7]: 5.8 µM; IC50 [6]: 1.2 µM
COc1ccccc1-c1ccc(NC(=N)N)nc1	56%	78%	4%	IC50 [7]: > 30 µM; IC50 [6]: 7.7 µM

Source: ChEMBL document CHEMBL4145539, “Phenylpyridine-2-ylguanidines and rigid mimetics as novel inhibitors of TNFα overproduction: Beneficial action in models of neuropathic pain and of acute lung inflammation” (Eur J Med Chem, 2018)
